Assay results as given in ChEMBL document CHEMBL1149039, “A new scalarane sesterterpenoid from the marine sponge Cacospongia mollior” (J Nat Prod, 1994).
≈ marks a conversion by molar mass, not a printed value.

Test: Toxicity in Artemia salina
Assay type: organism-based
Conditions: in vivo, read-out: LD50 (the source's name)

CC1(C)CCC[C@]2(C)[C@H]3CC[C@@]4(C)[C@@H](CC=C(C=O)[C@@H]4C=O)[C@]3(C)CC[C@@H]12 [12-DEACETOXYSCALARADIAL]
LC50: 0.77 µg/mL (≈ 2.08 µM)

CC(=O)O[C@H]1C[C@@H]2[C@@]3(C)CCCC(C)(C)[C@@H]3CC[C@@]2(C)[C@@H]2CC=C(C=O)[C@H](C=O)[C@@]12C [SCALARADIAL]
LC50: 0.18 µg/mL (≈ 0.42 µM)
